Where “and” joins values, the source holds several entries; their conditions need not be identical. Equal entries are not always repeated.
Tests used:
Glutamate receptor 3 = Glutamate receptor 3 (Rattus norvegicus, UniProt P19492)
[1] = molecular target: Glutamate receptor ionotropic, kainate 1 (Rattus norvegicus, UniProt P22756)
[2] = molecular target: Glutamate receptor ionotropic, NMDA 1 (Rattus norvegicus, UniProt P35439)

Chain of Glutamate receptor ionotropic, kainate 1 (P22756 whole entry): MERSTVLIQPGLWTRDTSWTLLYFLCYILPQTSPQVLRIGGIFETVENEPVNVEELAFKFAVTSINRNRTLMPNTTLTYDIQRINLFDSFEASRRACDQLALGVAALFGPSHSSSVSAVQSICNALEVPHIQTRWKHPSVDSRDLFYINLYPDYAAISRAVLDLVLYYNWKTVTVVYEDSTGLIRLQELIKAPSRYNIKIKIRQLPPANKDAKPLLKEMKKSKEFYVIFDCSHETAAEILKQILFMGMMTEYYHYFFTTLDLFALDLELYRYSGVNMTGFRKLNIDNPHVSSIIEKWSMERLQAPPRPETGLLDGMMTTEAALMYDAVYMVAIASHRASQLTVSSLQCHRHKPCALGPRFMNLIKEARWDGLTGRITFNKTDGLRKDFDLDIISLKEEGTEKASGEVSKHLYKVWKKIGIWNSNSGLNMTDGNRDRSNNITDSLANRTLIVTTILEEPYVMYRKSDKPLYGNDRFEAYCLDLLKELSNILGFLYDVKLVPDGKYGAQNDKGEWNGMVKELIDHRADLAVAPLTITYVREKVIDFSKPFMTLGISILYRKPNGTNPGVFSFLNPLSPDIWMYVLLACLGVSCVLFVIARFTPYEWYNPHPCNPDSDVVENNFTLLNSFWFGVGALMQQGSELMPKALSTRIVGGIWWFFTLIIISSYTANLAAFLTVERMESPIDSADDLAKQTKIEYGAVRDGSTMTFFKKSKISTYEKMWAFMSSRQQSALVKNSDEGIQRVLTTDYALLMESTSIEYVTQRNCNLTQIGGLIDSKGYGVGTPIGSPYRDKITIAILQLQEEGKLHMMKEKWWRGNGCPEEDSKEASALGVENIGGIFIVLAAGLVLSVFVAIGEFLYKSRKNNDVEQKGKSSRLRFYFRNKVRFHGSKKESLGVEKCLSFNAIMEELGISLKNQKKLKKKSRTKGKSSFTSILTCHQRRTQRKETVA
Chain of Glutamate receptor 3 (P19492 whole entry): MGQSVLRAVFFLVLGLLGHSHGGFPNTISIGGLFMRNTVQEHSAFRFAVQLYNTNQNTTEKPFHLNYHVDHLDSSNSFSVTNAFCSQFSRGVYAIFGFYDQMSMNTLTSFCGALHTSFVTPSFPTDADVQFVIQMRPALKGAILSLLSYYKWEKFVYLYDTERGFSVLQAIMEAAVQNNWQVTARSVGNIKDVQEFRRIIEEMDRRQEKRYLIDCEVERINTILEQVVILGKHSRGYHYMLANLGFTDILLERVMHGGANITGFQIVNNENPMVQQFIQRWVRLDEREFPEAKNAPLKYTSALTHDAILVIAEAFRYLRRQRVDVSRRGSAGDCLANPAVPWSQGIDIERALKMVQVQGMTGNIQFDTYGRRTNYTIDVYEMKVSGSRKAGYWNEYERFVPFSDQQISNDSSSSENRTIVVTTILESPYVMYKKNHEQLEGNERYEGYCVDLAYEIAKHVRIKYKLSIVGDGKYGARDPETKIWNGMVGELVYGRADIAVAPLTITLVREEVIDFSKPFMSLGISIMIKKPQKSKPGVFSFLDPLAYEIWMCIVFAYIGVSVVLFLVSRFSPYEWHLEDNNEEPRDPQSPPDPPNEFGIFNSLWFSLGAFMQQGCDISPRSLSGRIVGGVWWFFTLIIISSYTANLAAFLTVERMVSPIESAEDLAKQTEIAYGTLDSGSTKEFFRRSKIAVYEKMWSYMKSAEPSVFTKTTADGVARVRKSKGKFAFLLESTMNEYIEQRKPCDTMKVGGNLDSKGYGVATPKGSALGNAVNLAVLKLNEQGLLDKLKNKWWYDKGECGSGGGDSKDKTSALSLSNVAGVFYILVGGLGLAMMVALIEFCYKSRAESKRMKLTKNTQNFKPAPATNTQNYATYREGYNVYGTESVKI

| SMILES | Ki (Glutamate receptor 3) | Ki [1] | Ki [2] |
| --- | --- | --- | --- |
| Cc1onc(C(=O)O)c1C[C@H](N)C(=O)O | 0.025 µM | 3.6 µM | > 10 µM |
| Cc1onc(C(=O)O)c1C[C@@H](N)C(=O)O [(R)-ACPA] |  | > 10 µM | > 10 µM |
| N[C@@H](Cc1conc1C(=O)O)C(=O)O [(R)-Demethyl-ACPA] | 9.4 µM | > 10 µM | 4.5 µM |
| Cc1onc(C(=O)O)c1CC(N)C(=O)O [(S)-2-AMINO-3-(3-CARBOXY-5-METHYLISOXAZOL-4-YL)PROPIONIC ACID] | 0.02 µM | 6.3 µM | > 10 µM |
| N[C@@H](Cc1conc1C(=O)O)C(=O)O [Demethyl-ACPA] | 0.039 µM and 0.1 µM |  | > 10 µM |
| C[C@H](NC(=O)CNC(=O)[C@@H](NC(=O)[C@H](Cc1ccccc1)NC(=O)CNC(=O)CNC(=O)[C@@H](N)Cc1ccccc1)[C@@H](C)O)C(=O)N[C@@H](CCCN=C(N)N)C(=O)N[C@@H](CCCCN)C(=O)N[C@@H](CO)C(=O)N[C@@H](C)C(=O)N[C@@H](CCCN=C(N)N)C(=O)N[C@@H](CCCCN)C(N)=O [OFQ/N (1-11),[Tyr10]] | 0.27 µM | > 10 µM | > 10 µM |

Reference: BindingDB's records for doi:10.1002/chir.1172 (The Royal Danish School of Pharmacy, 2001)
